Test results as given in the NIST ThermoML archive (doi:10.1021/je200825j).

Conditions: Liquid mixture 1, Drop weight

CCCCCCCCCC [decane] + O
Conditions | interfacial tension [mN/m]
297.85 K, 110 kPa | 51.96
323.35 K, 180 kPa | 47.78
323.35 K, 22250 kPa | 48.88
323.35 K, 39800 kPa | 49.11
343.45 K, 150 kPa | 46.28
343.45 K, 22850 kPa | 47.68
343.45 K, 49020 kPa | 48.39
374.25 K, 200 kPa | 42.87
374.25 K, 23000 kPa | 44.13
374.25 K, 47150 kPa | 45.21
403.05 K, 400 kPa | 39.59
403.05 K, 24500 kPa | 40.33
403.05 K, 48000 kPa | 40.9
442.85 K, 1150 kPa | 32.36
442.85 K, 46400 kPa | 36.89
